The values that follow come from ChEMBL document CHEMBL1649471, “Nonhuman primates are protected from smallpox virus or monkeypox virus challenges by the antiviral drug ST-246” (2009).

The structures appear in SMILES notation. Calls of active or inactive are those of the source. The rule behind the calls is not given here.

The subject of experiment [1] is Variola virus. The experiment is described as follows: Antiviral activity against 1X10'8 PFU Variola virus Harper infected in cynomolgus monkey assessed as platelet count in animal at 300 mg/kg/day, po administered 3 days post infection followed by 5 ml/kg of 30% suspension of hydrated homogenized monkey biscuit measured 9 days post infection. The format is functional.

The test system of another experiment is Cynomolgus monkey. The experiment is described as follows: Immunostimulatory activity in cynomolgus monkey infected with 1X10'8 PFU Variola virus Harper assessed as level of IgM at 300 mg/kg/day, po followed by 5 ml/kg of 30% suspension of hydrated homogenized monkey biscuit measured on day 7 by ELISA. The format is functional, organism-based. The settings on record: Macaca fascicularis.

The subject of experiment [2] is Variola virus. In words: Antiviral activity against 1X10'8 PFU Variola virus Harper infected in cynomolgus monkey assessed as mean corpuscular hemoglobin concentration in animal at 300 mg/kg/day, po administered 1 day post infection followed by 5 ml/kg of 30% suspension of hydrated homogenized monkey biscuit measured 11 days post infection. Type of experiment: functional.

Experiment [3] concerns Variola virus. In words: Antiviral activity against 1X10'8 PFU Variola virus Harper infected in cynomolgus monkey assessed as blood urea nitrogen level in animal at 300 mg/kg/day, po administered 3 days post infection followed by 5 ml/kg of 30% suspension of hydrated homogenized monkey biscuit measured 9 days post infection. The format is functional.
The subject of experiment [4] is Monkeypox virus. The experiment is described as follows: Antiviral activity against Monkeypox virus Zaire '79 infected in cynomolgus monkey assessed as inhibition of virus induced skin lesions at 300 mg/kg/day, po administered 72 hrs post infection measured after 14 days. Type of experiment: functional, organism-based.
Experiment [5] relates to Variola virus. The experiment is described as follows: Antiviral activity against 1X10'8 PFU Variola virus Harper infected in cynomolgus monkey assessed as survival of animal at 300 mg/kg/day, po administered 1 day post infection followed by 5 ml/kg of 30% suspension of hydrated homogenized monkey biscuit measured up to 28 days. Type of experiment: functional, organism-based.

Experiment [6] has as its system Variola virus. The experiment is described as follows: Antiviral activity against 1X10'8 PFU Variola virus Harper infected in cynomolgus monkey assessed as white blood cell count in animal at 300 mg/kg/day, po administered immediately after infection followed by 5 ml/kg of 30% suspension of hydrated homogenized monkey biscuit measured 11 days post infection. The format is functional.

For experiment [7], the system named is Variola virus. The experiment is described as follows: Antiviral activity against 1X10'8 PFU Variola virus Harper infected in cynomolgus monkey assessed as temperature change in animal at 300 mg/kg/day, po administered 1 day post infection followed by 5 ml/kg of 30% suspension of hydrated homogenized monkey biscuit measured 11 days post infection. The format is functional.

In experiment [8] the test system is Variola virus. In words: Antiviral activity against 1X10'8 PFU Variola virus Harper infected in cynomolgus monkey assessed as percent hematocrit level in animal at 300 mg/kg/day, po administered immediately after infection followed by 5 ml/kg of 30% suspension of hydrated homogenized monkey biscuit measured 11 days post infection. The format is functional.
Experiment [9] deals with Variola virus. In words: Antiviral activity against 1X10'8 PFU Variola virus Harper infected in cynomolgus monkey assessed as temperature change in animal at 300 mg/kg/day, po administered immediately after infection followed by 5 ml/kg of 30% suspension of hydrated homogenized monkey biscuit measured 11 days post infection. Type of experiment: functional.
Experiment [10] concerns Variola virus. In words: Antiviral activity against 1X10'8 PFU Variola virus Harper infected in cynomolgus monkey assessed as aspartate amino transferase level in animal at 300 mg/kg/day, po administered immediately after infection followed by 5 ml/kg of 30% suspension of hydrated homogenized monkey biscuit measured 11 days post infection. The format is functional.
In experiment [11] the test system is Variola virus. The experiment is described as follows: Antiviral activity against 1X10'8 PFU Variola virus Harper infected in cynomolgus monkey assessed as creatinine level in animal at 300 mg/kg/day, po administered immediately after infection followed by 5 ml/kg of 30% suspension of hydrated homogenized monkey biscuit measured 11 days post infection. The format is functional.

The test system of experiment [12] is Variola virus. In words: Antiviral activity against 1X10'8 PFU Variola virus Harper infected in cynomolgus monkey assessed as aspartate amino transferase level in animal at 300 mg/kg/day, po administered 1 day post infection followed by 5 ml/kg of 30% suspension of hydrated homogenized monkey biscuit measured 11 days post infection. The format is functional.

The subject of experiment [13] is Variola virus. The experiment is described as follows: Antiviral activity against 1X10'8 PFU Variola virus Harper infected in cynomolgus monkey assessed as blood urea nitrogen level in animal at 300 mg/kg/day, po administered 1 day post infection followed by 5 ml/kg of 30% suspension of hydrated homogenized monkey biscuit measured 11 days post infection. Type of experiment: functional.

The test system of experiment [14] is Monkeypox virus. The experiment is described as follows: Antiviral activity against Monkeypox virus Zaire '79 infected in cynomolgus monkey assessed as inhibition of virus induced skin lesions at 300 mg/kg/day, po administered 24 hrs post infection measured after 14 days. Type of experiment: functional, organism-based.
Experiment [15] has as its system Variola virus. In words: Antiviral activity against 1X10'8 PFU Variola virus Harper infected in cynomolgus monkey assessed as creatinine level in animal at 300 mg/kg/day, po administered 1 day post infection followed by 5 ml/kg of 30% suspension of hydrated homogenized monkey biscuit measured 11 days post infection. The format is functional.
For experiment [16], the system named is Variola virus. The experiment is described as follows: Antiviral activity against 1X10'8 PFU Variola virus Harper infected in cynomolgus monkey assessed as inhibition of virus-mediated lesion formation at 300 mg/kg/day, po administered immediately post infection followed by 5 ml/kg of 30% suspension of hydrated homogenized monkey biscuit measured between day 5 to 8. The format is functional, organism-based.

Experiment [17] concerns Variola virus. In words: Antiviral activity against 1X10'8 PFU Variola virus Harper infected in cynomolgus monkey assessed as log decrease in blood viral load at 300 mg/kg/day, po administered 1 day post infection followed by 5 ml/kg of 30% suspension of hydrated homogenized monkey biscuit measured between day 5 to 8. The format is functional.
Experiment [18] has as its system Variola virus. The experiment is described as follows: Antiviral activity against 1X10'8 PFU Variola virus Harper infected in cynomolgus monkey assessed as decrease in blood viral load at 300 mg/kg/day, po administered 1 day post infection followed by 5 ml/kg of 30% suspension of hydrated homogenized monkey biscuit measured up to 28 days. Type of experiment: functional, organism-based.

Experiment [19] concerns Variola virus. In words: Antiviral activity against 1X10'8 PFU Variola virus Harper infected in cynomolgus monkey assessed as platelet count in animal at 300 mg/kg/day, po administered immediately after infection followed by 5 ml/kg of 30% suspension of hydrated homogenized monkey biscuit measured 11 days post infection. The format is functional.
Experiment [20] has as its system Variola virus. The experiment is described as follows: Antiviral activity against 1X10'8 PFU Variola virus Harper infected in cynomolgus monkey assessed as survival of animal at 300 mg/kg/day, po administered immediately post infection followed by 5 ml/kg of 30% suspension of hydrated homogenized monkey biscuit measured up to 28 days. The format is functional, organism-based.

Experiment [21] deals with Variola virus. The experiment is described as follows: Antiviral activity against 1X10'8 PFU Variola virus Harper infected in cynomolgus monkey assessed as inhibition of virus-mediated lesion formation at 300 mg/kg/day, po administered 1 day post infection followed by 5 ml/kg of 30% suspension of hydrated homogenized monkey biscuit measured between day 5 to 8. Type of experiment: functional, organism-based.

Experiment [22] relates to Monkeypox virus. The experiment is described as follows: Antiviral activity against Monkeypox virus Zaire '79 infected in cynomolgus monkey assessed as log decrease in viral load at 300 mg/kg/day, po administered 24 hrs post infection followed by 5 ml/kg of monkey biscuit measured after 14 days. The format is functional.

`O=C(NN1C(=O)[C@@H]2[C@@H]3C=C[C@@H]([C@H]4C[C@@H]34)[C@@H]2C1=O)c1ccc(C(F)(F)F)cc1` [TECOVIRIMAT]: the Activity with Variola virus [1] was found to be 406 ×10³ /uL; in the experiment with Variola virus [2] it was 31.1 g/dL; in the experiment on Variola virus [3], 10.7 mg/dL; with Variola virus [6], 8.2 ×10³ /uL; in the experiment on Variola virus [7], 37.3 °C; with Variola virus [8] it was 44.3%. Also, the Activity with Variola virus [9] was found to be 38 °C; in the experiment with Variola virus [10], 55 U/L; in the experiment on Variola virus [11], 0.73 mg/dL; in the experiment on Variola virus [12], 58 U/L; with Variola virus [13], 18.7 mg/dL; in the experiment on Variola virus [15] it was 0.7 mg/dL. Moreover, in the experiment with Variola virus [19], the Activity is 329 ×10³ /uL. Moreover, the outcome in the experiment on Cynomolgus monkey, in the experiment with Monkeypox virus [4], with Variola virus [5], with Monkeypox virus [14], with Variola virus [18] and in the experiment on Variola virus [20] was Active. Further, the inhibition result in the experiment with Variola virus [16] and in the experiment on Variola virus [21] was “Active” throughout. The FC with Variola virus [17] stood at 3; with Monkeypox virus [22] it was 5.
